Values after ≈ are worked out from the molar mass of the structure shown. Like-named read-outs stand apart in the source and are kept apart here.
Assays:
[1] = test system: Pseudomonas aeruginosa K799/61; assay: In vitro antibacterial activity, agar dilution MIC; type: cell-based; settings: BHI agar, 35°-37° C., 20 to 24 hours, read-out: MIC
[2] = test system: Staphylococcus aureus CMX 553; assay: In vitro antibacterial activity, agar dilution MIC; type: cell-based; settings: CMX553
Description: (§1) Representative compounds of the present invention were assayed in vitro for antibacterial activity as follows: Twelve petri dishes containing successive aqueous dilutions of the test compound mixed with 10 mL of sterilized Brain Heart Infusion (BHI) agar (Difco 0418-01-5) were prepared. Each plate was inoculated with 1:100 (or 1:10 for slow-growing strains, such as Micrococcus and Streptococcus) dilutions of up to 32 different microorganisms, using a Steers replicator block. The inoculated plates were incubated 35°-37° C. for 20 to 24 hours. In addition, a control plate, using BHI agar containing no test compound, was prepared and incubated at the beginning and end of each test.
(§2) An additional plate containing a compound having known susceptibility patterns for the organisms being tested and belonging to the same antibiotic class as the test compound was also prepared and incubated as a further control, as well as to provide test-to-test comparability. Erythromycin A was used for this purpose.
(§3) After incubation, each disk was read. The minimum inhibitory concentration (MIC) was defined as the lowest concentration of drug yielding no growth, a slight haze, or sparsely isolated colonies on the inoculum spot as compared to the growth control.

Escherichia coli Juhl = assay: In vitro antibacterial activity, agar dilution MIC; type: cell-based
Description: as §1, §2, §3

Escherichia coli DC-2 = assay: In vitro antibacterial activity, agar dilution MIC; type: cell-based; settings: DC2
Description: as §1, §2, §3

[3] = test system: Streptococcus pyogenes 930 const; assay: In vitro antibacterial activity, agar dilution MIC; type: cell-based
Description: as §1, §2, §3

[4] = test system: Staphylococcus aureus ATCC 6538P; assay: In vitro antibacterial activity, agar dilution MIC; type: cell-based; settings: ATCC6538P
Description: as §1, §2, §3

[5] = test system: Streptococcus pyogenes EES61; assay: In vitro antibacterial activity, agar dilution MIC; type: cell-based
Description: as §1, §2, §3

[6] = test system: Enterobacter aerogenes ATCC 13048; assay: In vitro antibacterial activity, agar dilution MIC; type: cell-based; settings: Klebsiella aerogenes, ATCC13048
Description: as §1, §2, §3

[7] = test system: Pseudomonas aeruginosa 2862; assay: In vitro antibacterial activity, agar dilution MIC; type: cell-based
Description: as §1, §2, §3

[8] = test system: Enterococcus faecium ATCC 8043; assay: In vitro antibacterial activity, agar dilution MIC; type: cell-based; settings: ATCC8043
Description: as §1, §2, §3

[9] = test system: Pseudomonas aeruginosa K799/WT; assay: In vitro antibacterial activity, agar dilution MIC; type: cell-based
Description: as §1, §2, §3

[10] = test system: Providencia stuartii CMX 640; assay: In vitro antibacterial activity, agar dilution MIC; type: cell-based; settings: CMX640
Description: as §1, §2, §3

Micrococcus luteus 4698 = assay: In vitro antibacterial activity, agar dilution MIC; type: cell-based
Description: as §1, §2, §3

[11] = test system: Staphylococcus aureus CMX 642a; assay: In vitro antibacterial activity, agar dilution MIC; type: cell-based; settings: CMX642A
Description: as §1, §2, §3

[12] = test system: Pseudomonas aeruginosa A5007; assay: In vitro antibacterial activity, agar dilution MIC; type: cell-based
Description: as §1, §2, §3

[13] = test system: Streptococcus bovis A5169; assay: In vitro antibacterial activity, agar dilution MIC; type: cell-based; settings: Streptococcus equinus, A5169
Description: as §1, §2, §3

[14] = test system: Streptococcus pyogenes 2548 induc; assay: In vitro antibacterial activity, agar dilution MIC; type: cell-based
Description: as §1, §2, §3

[15] = test system: Staphylococcus aureus 1775 Cipro R; assay: In vitro antibacterial activity, agar dilution MIC; type: cell-based; settings: Staphylococcus aureus, 1775CIPROR
Description: as §1, §2, §3

Escherichia coli KNK 437 = assay: In vitro antibacterial activity, agar dilution MIC; type: cell-based; settings: KNK437
Description: as §1, §2, §3

Escherichia coli H560 = assay: In vitro antibacterial activity, agar dilution MIC; type: cell-based
Description: as §1, §2, §3

[16] = test system: Acinetobacter calcoaceticus CMX 669; assay: In vitro antibacterial activity, agar dilution MIC; type: cell-based; settings: Acinetobacter calcoaceticus, CMX669
Description: as §1, §2, §3

[17] = test system: Staphylococcus epidermidis 3519; assay: In vitro antibacterial activity, agar dilution MIC; type: cell-based
Description: as §1, §2, §3

[18] = test system: Staphylococcus aureus NCTC 10649; assay: In vitro antibacterial activity, agar dilution MIC; type: cell-based; settings: NCTC10649
Description: as §1, §2, §3

[19] = test system: Streptococcus agalactiae 508; assay: In vitro antibacterial activity, agar dilution MIC; type: cell-based
Description: as §1, §2, §3

[20] = test system: Klebsiella pneumoniae ATCC 8045; assay: In vitro antibacterial activity, agar dilution MIC; type: cell-based; settings: ATCC8045
Description: as §1, §2, §3

[21] = test system: Staphylococcus aureus A5177; assay: In vitro antibacterial activity, agar dilution MIC; type: cell-based
Description: as §1, §2, §3

[22] = test system: Pseudomonas aeruginosa 5263; assay: In vitro antibacterial activity, agar dilution MIC; type: cell-based
Description: as §1, §2, §3

[23] = test system: Pseudomonas aeruginosa BMH10; assay: In vitro antibacterial activity, agar dilution MIC; type: cell-based
Description: as §1, §2, §3

Pseudomonas cepacia 2961 = assay: In vitro antibacterial activity, agar dilution MIC; type: cell-based; settings: Burkholderia cepacia
Description: as §1, §2, §3

[24] = test system: Staphylococcus aureus A5278; assay: In vitro antibacterial activity, agar dilution MIC; type: cell-based; settings: Staphylococcus aureus, A5278
Description: as §1, §2, §3

[25] = test system: Micrococcus luteus ATCC 9341; assay: microbe, parasite or virus in culture; settings: Micrococcus luteus, ATCC9341
Description: as §1, §2, §3

Escherichia coli SS = assay: microbe, parasite or virus in culture; settings: Escherichia coli
Description: as §1, §2, §3

CC[C@H]1OC(=O)[C@H](C)[C@@H](O[C@H]2C[C@@](C)(OC)[C@@H](O)[C@H](C)O2)[C@H](C)[C@@H](O[C@@H]2O[C@H](C)C[C@H](N(C)C)[C@H]2O)[C@](C)(O)C[C@@H](C)C(=O)[C@H](C)[C@@H](O)[C@]1(C)O [CONTROL, Erythromycin A, reference compound]
MIC [1]: 3.1 µg/mL (≈ 4.22 µM) | MIC ([2]; Staphylococcus aureus): 0.2 µg/mL (≈ 0.273 µM) | MIC (Escherichia coli Juhl; Escherichia coli): 50 µg/mL (≈ 68.1 µM) | MIC (Escherichia coli DC-2; Escherichia coli): 100 µg/mL (≈ 136 µM) | MIC ([3]; Streptococcus pyogenes, 930CONST): > 100 µg/mL | MIC ([4]; Staphylococcus aureus): 0.2 µg/mL (≈ 0.273 µM) | MIC ([5]; Streptococcus pyogenes, EES61): 0.05 µg/mL (≈ 0.0681 µM) | MIC [6]: 100 µg/mL (≈ 136 µM) | MIC ([7]; Pseudomonas aeruginosa, 2862): > 100 µg/mL | MIC ([8]; Enterococcus faecium): 0.1 µg/mL (≈ 0.136 µM) | MIC ([9]; Pseudomonas aeruginosa, K799/WT): > 100 µg/mL | MIC ([10]; Providencia stuartii): > 100 µg/mL | MIC (Micrococcus luteus 4698; Micrococcus luteus, 4698): 0.39 µg/mL (≈ 0.531 µM) | MIC ([11]; Staphylococcus aureus): 0.2 µg/mL (≈ 0.273 µM) | MIC ([12]; Pseudomonas aeruginosa, A5007): > 100 µg/mL | MIC [13]: 0.05 µg/mL (≈ 0.0681 µM) | MIC ([14]; Streptococcus pyogenes, 2548INDUC): 6.2 µg/mL (≈ 8.45 µM) | MIC [15]: > 100 µg/mL | MIC (Escherichia coli KNK 437; Escherichia coli): 50 µg/mL (≈ 68.1 µM) | MIC (Escherichia coli H560; Escherichia coli, H560): 50 µg/mL (≈ 68.1 µM) | MIC [16]: 1.56 µg/mL (≈ 2.13 µM) | MIC ([17]; Staphylococcus epidermidis, 3519): 0.2 µg/mL (≈ 0.273 µM) | MIC ([18]; Staphylococcus aureus): 0.2 µg/mL (≈ 0.273 µM) | MIC ([19]; Streptococcus agalactiae, 508): 0.05 µg/mL (≈ 0.0681 µM) | MIC ([20]; Klebsiella pneumoniae): 50 µg/mL (≈ 68.1 µM) | MIC ([21]; Staphylococcus aureus, A5177): 1.56 µg/mL (≈ 2.13 µM) | MIC ([22]; Pseudomonas aeruginosa, 5263): > 100 µg/mL | MIC ([23]; Pseudomonas aeruginosa, BMH10): 100 µg/mL (≈ 136 µM) | MIC (Pseudomonas cepacia 2961; 2961): > 100 µg/mL | MIC [24]: > 100 µg/mL | MIC [25]: 0.05 µg/mL (≈ 0.0681 µM) | MIC (Escherichia coli SS): 0.39 µg/mL (≈ 0.531 µM)

CC[C@H]1OC(=O)[C@H](C)[C@@H](O[C@H]2C[C@](C)(F)[C@@H](OC)[C@H](C)O2)[C@H](C)[C@@H](O[C@@H]2O[C@H](C)C[C@H](N(C)C)[C@H]2O)[C@@]2(C)CC(C)=C(O2)[C@H](C)[C@H]2OC(=O)O[C@@]21C [Example 17, (3"S)-8,9-Anhydro-11-O,12-O-carbonyl-3"-fluoro-3"-desmethoxy-4"-O-methylerythromycin A-6,9-hemiketal]
MIC [1]: 50 µg/mL (≈ 67.2 µM) | MIC ([2]; Staphylococcus aureus CMX 553, BHI agar, 35°-37° C., 20 to 24 hours, read-out: MIC): 1.56 µg/mL (≈ 2.1 µM) | MIC (Escherichia coli Juhl; Escherichia coli Juhl, BHI agar, 35°-37° C., 20 to 24 hours, read-out: MIC): > 100 µg/mL | MIC (Escherichia coli DC-2; Escherichia coli DC-2, BHI agar, 35°-37° C., 20 to 24 hours, read-out: MIC): > 100 µg/mL | MIC ([3]; Streptococcus pyogenes 930 const, BHI agar, 35°-37° C., 20 to 24 hours, read-out: MIC): 12.5 µg/mL (≈ 16.8 µM) | MIC ([4]; Staphylococcus aureus ATCC 6538P, BHI agar, 35°-37° C., 20 to 24 hours, read-out: MIC): 1.56 µg/mL (≈ 2.1 µM) | MIC ([5]; Streptococcus pyogenes EES61, BHI agar, 35°-37° C., 20 to 24 hours, read-out: MIC): 0.2 µg/mL (≈ 0.269 µM) | MIC ([6]; Enterobacter aerogenes ATCC 13048, BHI agar, 35°-37° C., 20 to 24 hours, read-out: MIC): > 100 µg/mL | MIC ([7]; Pseudomonas aeruginosa 2862, BHI agar, 35°-37° C., 20 to 24 hours, read-out: MIC): > 100 µg/mL | MIC ([8]; Enterococcus faecium ATCC 8043, BHI agar, 35°-37° C., 20 to 24 hours, read-out: MIC): 0.39 µg/mL (≈ 0.524 µM) | MIC ([9]; Pseudomonas aeruginosa K799/WT, BHI agar, 35°-37° C., 20 to 24 hours, read-out: MIC): > 100 µg/mL | MIC ([10]; Providencia stuartii CMX 640, BHI agar, 35°-37° C., 20 to 24 hours, read-out: MIC): > 100 µg/mL | MIC (Micrococcus luteus 4698; Micrococcus luteus 4698, BHI agar, 35°-37° C., 20 to 24 hours, read-out: MIC): 1.56 µg/mL (≈ 2.1 µM) | MIC ([11]; Staphylococcus aureus CMX 642a, BHI agar, 35°-37° C., 20 to 24 hours, read-out: MIC): 1.56 µg/mL (≈ 2.1 µM) | MIC ([12]; Pseudomonas aeruginosa A5007, BHI agar, 35°-37° C., 20 to 24 hours, read-out: MIC): > 100 µg/mL | MIC [13]: 0.1 µg/mL (≈ 0.134 µM) | MIC ([14]; Streptococcus pyogenes 2548 induc, BHI agar, 35°-37° C., 20 to 24 hours, read-out: MIC): 1.56 µg/mL (≈ 2.1 µM) | MIC [15]: 25 µg/mL (≈ 33.6 µM) | MIC (Escherichia coli KNK 437; Escherichia coli KNK 437, BHI agar, 35°-37° C., 20 to 24 hours, read-out: MIC): > 100 µg/mL | MIC (Escherichia coli H560; Escherichia coli H560, BHI agar, 35°-37° C., 20 to 24 hours, read-out: MIC): > 100 µg/mL | MIC [16]: 25 µg/mL (≈ 33.6 µM) | MIC ([17]; Staphylococcus epidermidis 3519, BHI agar, 35°-37° C., 20 to 24 hours, read-out: MIC): 1.56 µg/mL (≈ 2.1 µM) | MIC ([18]; Staphylococcus aureus NCTC 10649, BHI agar, 35°-37° C., 20 to 24 hours, read-out: MIC): 1.56 µg/mL (≈ 2.1 µM) | MIC ([19]; Streptococcus agalactiae 508, BHI agar, 35°-37° C., 20 to 24 hours, read-out: MIC): 0.2 µg/mL (≈ 0.269 µM) | MIC ([20]; Klebsiella pneumoniae ATCC 8045, BHI agar, 35°-37° C., 20 to 24 hours, read-out: MIC): > 100 µg/mL | MIC ([21]; Staphylococcus aureus A5177, BHI agar, 35°-37° C., 20 to 24 hours, read-out: MIC): 12.5 µg/mL (≈ 16.8 µM) | MIC ([22]; Pseudomonas aeruginosa 5263, BHI agar, 35°-37° C., 20 to 24 hours, read-out: MIC): > 100 µg/mL | MIC ([23]; Pseudomonas aeruginosa BMH10, BHI agar, 35°-37° C., 20 to 24 hours, read-out: MIC): > 100 µg/mL | MIC (Pseudomonas cepacia 2961; Pseudomonas cepacia 2961, BHI agar, 35°-37° C., 20 to 24 hours, read-out: MIC): > 100 µg/mL | MIC [24]: 25 µg/mL (≈ 33.6 µM) | MIC [25]: 0.1 µg/mL (≈ 0.134 µM) | MIC (Escherichia coli SS): 3.1 µg/mL (≈ 4.17 µM)

From patent publication US5393743A, “Erythromycin derivatives” (Abbott Laboratories, priority 1993, dated 1995)
